# Assay results published in US20110306671A1, “AMIDE DERIVATIVES OF ETHACRYNIC ACID” (The Regents of the The University of California, priority 2008, published 2011).
# pIC50: −log10 of the molar value.
# Assays:
# LEF-1/β-catenin complex = biological target: T1, LEF-1/β-catenin complex (Homo sapiens, UniProt Q9UJU2); assay: Co-immunoprecipitation of the β-catenin complex in SW480 cells; format: cell-based; details: increasing EA, 16 hours
# T1 construct: endogenous in cells; host or cells: SW480 cells
# T1 sequence (Q9UJU2 whole entry, one chain of several): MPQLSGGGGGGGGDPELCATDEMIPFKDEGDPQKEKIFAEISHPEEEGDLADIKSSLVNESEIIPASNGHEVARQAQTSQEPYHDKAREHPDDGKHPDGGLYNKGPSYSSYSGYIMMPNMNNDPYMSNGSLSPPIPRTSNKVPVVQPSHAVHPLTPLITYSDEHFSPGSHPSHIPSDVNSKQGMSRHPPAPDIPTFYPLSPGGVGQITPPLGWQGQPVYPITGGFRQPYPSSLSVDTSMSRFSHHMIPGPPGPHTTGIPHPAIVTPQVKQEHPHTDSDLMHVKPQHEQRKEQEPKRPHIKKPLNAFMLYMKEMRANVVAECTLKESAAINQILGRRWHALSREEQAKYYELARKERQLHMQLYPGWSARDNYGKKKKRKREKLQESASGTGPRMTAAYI
# Procedure: FIG. 7. EA destabilizes the LEF-1/β-catenin complex. (A) SW480 cells were treated with increasing amounts of EA for 16 hours. Cells were lysed, and IP was completed with anti-β-catenin monoclonal antibody. The immune complexes were analyzed by immunoblotting with anti-LEF-1, anti-α-catenin and anti-β-catenin antibodies. (B) EA inhibits Wnt/β-catenin signaling in SW480 cells. SW480 cells were transfected with TOPflash reporter and control plasmid pCMXβgal. After transfection for 24 hours, cells were treated with increasing concentrations of EA for another 24 hours as indicated. Cells were then harvested and luciferase values were determined. The results are expressed as relative luciferase activity (%) normalized to a β-galactosidase control.
# Primary CLL cells and SW480 cells were treated with the indicated amounts of EA. Cells were washed twice with PBS and resuspended in 0.5 mL lysis buffer (20 mM Tris-HCl, pH 8.0/10% glycerol/5 mM MgCl2/0.15 M KCl/0.1% Nonidet P-40 with protease inhibitors). For CLL cells, lysates of 1 to 2×10^7 cells were incubated with anti-LEF-1 antibody at a 1:1000 dilution overnight at 4° C., and then with saturating amounts of protein G plus/protein A agarose beads (Calbiochem) at 4° C. for 2 hours before centrifugation at 15,000 g for 5 minutes. […]
# [1] = tested on: LEF-1, cyclin D1 and fibronectin mRNA; assay: Real-time PCR of Wnt target genes in CLL cells; format: cell-based, human; details: CLL cells from three patients, 16 hours
# B16 = assay: Cytotoxicity of EA in tumor cell line B16; format: cell-based; details: Mus musculus, mean of at least two experiments
# PC3 = assay: Cytotoxicity of EA in tumor cell line PC3; format: cell-based; details: Homo sapiens, PC-3, mean of at least two experiments
# SK-Mel-28 = assay: Cytotoxicity of EA in tumor cell line SK-Mel-28; format: cell-based; details: Homo sapiens, mean of at least two experiments
# [2] = tested on: lymphoma and myeloma cells; details: Schmidt et al., 2009; cited from earlier work
# LEF-1 = biological target: T2, LEF-1 (Homo sapiens, UniProt Q9UJU2); assay: Immunoprecipitation and immunoblotting with anti-EA antibody: LEF-1; format: binding
# T2 construct: endogenous in cells; host or cells: primary CLL cells from patients; SW480 cells
# T2 sequence (Q9UJU2 whole entry): as the sequence (Q9UJU2 whole entry, one chain of several) above
# Procedure: FIG. 6. EA binds to LEF-1 in primary CLL and SW480 cells. (A) lysates from CLL cells exposed to 10 μM EA for 8 hours or 24 hours were immunoprecipitated with anti-LEF-1 antibody. The immune complexes were analyzed by immunoblotting with anti-LEF-1 and anti-EA antibodies. (B) SW480 cells were treated with indicated amounts of EA for 16 hours. Cell lysates were immunoprecipitated with anti-β-catenin antibody (Santa Cruz Biotechnology, Santa Cruz, Calif.). The immune complexes were analyzed by immunoblotting with anti-EA and anti-β-catenin antibodies. (C) SW480 cells were exposed to 50 μM of EA for 16 hours and cell lysates were immunoprecipitated with anti-β-catenin antibody. The proteins in the immunoprecipitates were resolved by SDS-PAGE, transferred, and probed with indicated antibodies.
# A conjugate of EA with Keyhole Limpet Hemocyanin (KLH, Sigma) was prepared by thiolation of KLH with N-succinimidyl S-acetylthioacetate (SATA), followed by allowing the SATA-KLH conjugate to form a Michael adduct with EA, as described in Hermanson (1996). Immunization of rabbits was performed by three 1 mL subcutaneous injections of approximately 0.4 mg EA-KLH conjugates. Complete Freund's adjuvant was used for the first injection. The second and third injections were performed 3 and 6 weeks after the first, using incomplete adjuvant. […]
# [3] = tested on: NFATc-mediated transcription; assay: NFAT reporter assay in HEK293 cells; format: cell-based, human; details: 50 μM EA, 24 hours
# Procedure: FIG. 1. Inhibition of Wnt/β-catenin signaling by EA. […] Cells were lysed and luciferase activity was quantified. Total protein levels were determined by Bradford Assay and serve as a control for total cell number. (B) HEK293 cells were co-transfected with TOPflash reporter construct, along with expression plasmids for Wnt1, Wnt3, LRP6, Dvl and β-catenin as indicated. […] (C) HEK293 cells were transfected with FOPflash reporter with or without an expression plasmid for β-catenin. […] (D) HEK293 cells were transfected with NFAT reporter and expression plasmid for NFATc. […] The results are expressed as fold induction of luciferase activity compared to the basal level, and are the means of three experiments±SEM. For screening of the drug library, HEK293 cells were grown for at least 24 hours in 10 cm plates prior to transfection. At 50% confluence, cells were transfected with 5 μg of TOPflash reporter, 1 μg expression vector for Dvl, 1 μg of control plasmid pCMXβgal and carrier DNA pcDNA3 plasmid for a total of 10 μg/plate. After transfection for 24 hours, cells were harvested and dispersed in 96-well microtiter plates. […] Then luciferase values were determined. In the Results section, data are expressed as fold stimulation of luciferase activity compared to the basal level. […]
structure (smiles),measurement,setting,value
"C=C(CC)C(=O)c1ccc(OCC(=O)O)c(Cl)c1Cl [Compound 1, Ethacrynic acid]",LEF-1 levels in the β-catenin complex,LEF-1/β-catenin complex,decreased LEF-1 levels in the β-catenin complex in a concentration-dependent manner
same,α-catenin levels in the β-catenin complex,LEF-1/β-catenin complex,little effect
same,"LEF-1, cyclin D1 and fibronectin mRNA expression",[1],decreased
same,pIC50,B16,3.70
same,pIC50,PC3,4.17
same,pIC50,SK-Mel-28,3.91
same,induction of apoptosis,[2],significant induction of apoptosis
same,reaction of immunoprecipitated LEF-1 with anti-EA antibody,"LEF-1; CLL lysates, EA 10 μM, 8 hours and 24 hours",reacted strongly with the anti-EA antibody
same,staining of the LEF-1 band with anti-EA antibody,"LEF-1; SW480 cells, 50 μM EA, 16 hours, anti-β-catenin immunoprecipitate",stained positive with the anti-EA antibody only in the drug treated samples
same,effect on NFATc-mediated transcription from a NFAT reporter,[3],did not block
